Source: patent publication US20080206231A1, “Compositions and Methods for Treating Disease” (OREGON HEALTH AND SCIENCE UNIVERSITY, priority 2004, published 2008)

Tests used:
[1] = test system: 3T3 parental cells; assay: Herstatin cell binding ELISA on parental cells; conditions: NIH-3T3 parental cells, 2 hrs on ice
Description: (§1) ELISA. Monolayer cultures of ˜2×10^6 cells were plated in 6-well tissue culture plates, and were incubated with purified Herstatin for 2 hours at 4° C. in serum-free DMEM. Cells were washed with Phosphate Buffered Saline (PBS) and extracted in 50 mM Tris·HCl, pH 7.0, 1.0% NP-40. Herstatin bound to cells were quantified using a sandwich Herstatin ELISA per manufacturer's instructions (Upstate Biotechnology, Lake Placid, N.Y.).
(§2) The dissociation constant (KD) and maximal binding (Bmax) of Herstatin were determined by nonlinear regression analysis of the plot of pmol of bound versus nM of Herstatin added. Statistical comparisons between different binding curves were performed by extra sums-of-squares F-test nonlinear regression coefficients. All tests were performed (α=0.05) using GraphPad™ Prism 4™ software (GraphPad™ Software, 1994-2003).
(§3) Results. The interaction between Herstatin and IR was investigated. […] Increasing concentrations of Herstatin, expressed and purified from stably-transfected S2 insect cells, were added to 3T3 parental cells (filled triangles; “NIH-3T3”) or 3T3 cells transfected with a human IR cDNA (filled squares; “IRA-3T3”) as previously described (Shamieh et al., FEBS Letters, 568:163-166, 2004). After incubation for 2 hrs on ice, the cells were washed twice with PBS, and the bound Herstatin was quantified using a Herstatin ELISA (Upstate). […]

[2] = biological target: T1, IGF-IR (Homo sapiens, UniProt P08069); assay: IGF-IR expression, Western immunoblot in MCF-7 cells; format: cell-based; conditions: Herstatin-expressing MCF-7 cells vs control
T1 construct: Lysates from control and Herstatin-expressing MCF-7 cells were prepared from respective untreated (no insulin) cells; endogenous in cells; host or cells: MCF-7 (control and Herstatin-expressing clones)
Description: (§4) Western blot analysis, and antibodies. For Western blot analyses, whole-cell lysates or immunoprecipitated proteins were resolved by SDS-PAGE and transferred onto nitrocellulose membranes (BioRad, Hercules, Calif.). Blots were blocked in 5% milk and incubated with primary antibody overnight at 4° C. The antibodies included anti-insulin receptor (IR; against the β subunit), anti-IGF-IR, anti-IRS-1, anti-IRS-2, anti-phosphotyrosine, anti-phospho-Akt, anti-Akt, anti-phospho-ERK, anti-ERK, and anti-Shc antibodies (Santa Cruz Biotechnology, Transduction Laboratories, Cell Signaling Technologies, Upstate Laboratories, or Biosource). After washing, the blots were incubated with secondary antibody conjugated to HRP for 30 min (BioRad, Hercules, Calif.). The membranes were developed with SuperSignal™ West Dura (Pierce, Rockford, Ill.) and exposed to x-ray film.
(§5) Results. […] Lysates from control and Herstatin-expressing MCF-7 cells were prepared from respective untreated (no insulin) cells following overnight incubation in serum-free media, and processed directly or (in the case of the IR) also immunoprecipitated prior to Western immunoblot analysis as described in relation to FIG. 2.

[3] = test system: IRS-1, IRS-2, Shc, ERK1 and ERK2; assay: Expression/phosphorylation state of insulin signaling proteins (IRS-1, IRS-2, Shc, ERK) in MCF-7 cells; format: cell-based, human; conditions: Herstatin-expressing MCF-7 cells vs control, no insulin
Description: as §4, §5

[4] = biological target: T2, insulin receptor (IR) (Homo sapiens, UniProt P06213); assay: IR expression and activation, Western immunoblot in MCF-7 cells; format: cell-based; set-up: whole-cell lysates were prepared at the indicated times and processed directly for Western immunoblots with anti-insulin receptor (IR); endogenous in cells; host or cells: MCF-7 (control and Herstatin-expressing clones)
Description: as §4
Methods. Cell lines, expression vectors, protein purification, pull down assays, antibodies, Western blot analysis and ELISA assays were as described under EXAMPLE I, herein above. Insulin was added either to MCF-7 breast carcinoma cells, or to an MCF-7 cell line stably transfected with a Herstatin expression vector, to determine whether Herstatin expression affects IR expression, and/or insulin-stimulated IR signal transduction.
Results. […] Control and Herstatin-expressing MCF-7 cells were grown in complete medium prior to an overnight incubation in serum-free medium. Insulin was then added to the control and Herstatin-expressing cells and whole-cell lysates were prepared at the indicated times and processed directly for Western immunoblots with anti-insulin receptor (IR), phospho-Akt, Akt, phospho-ERK, and ERK antibodies, or first immunoprecipitated with anti-IR antibody and immunoprecipitates (IP) then analyzed by Western immunoblotting with anti-phosphotyrosine and anti-IR antibodies after transfer to nitrocellulose membranes. Following incubation of blots with primary antibodies, immunoreactive proteins were detected by enhanced chemiluminescence after a secondary incubation with HRP-conjugated secondary antisera. […]

[5] = biological target: T2, insulin receptor (IR); assay: Herstatin cell binding ELISA on IRA-3T3 cells; set-up: expressed in transfected cells; host or cells: NIH-3T3 (IRA-3T3); conditions: 3T3 cells transfected with human IR cDNA (IRA-3T3), purified Herstatin from S2 insect cells, 2 hrs on ice
Description: as §1, §2, §3

[6] = test system: P13K/Akt pathway; assay: Insulin-stimulated Akt activation in MCF-7 cells; format: cell-based, human; conditions: Herstatin-expressing MCF-7 cells vs control
Description: as §4, with “After washing, the blots were incubated with secondary antibody conjugated to HRP for 30 min (BioRad, Hercules, Calif.). The membranes were developed with SuperSignal™ West Dura (Pierce, Rockford, Ill.) and exposed to x-ray film.” left out
Results. […] Insulin was then added to the control and Herstatin-expressing cells and whole-cell lysates were prepared at the indicated times and processed directly for Western immunoblots with anti-insulin receptor (IR), phospho-Akt, Akt, phospho-ERK, and ERK antibodies, or first immunoprecipitated with anti-IR antibody and immunoprecipitates (IP) then analyzed by Western immunoblotting with anti-phosphotyrosine and anti-IR antibodies after transfer to nitrocellulose membranes. Following incubation of blots with primary antibodies, immunoreactive proteins were detected by enhanced chemiluminescence after a secondary incubation with HRP-conjugated secondary antisera. […]

[7] = test system: MAPK kinase (MEK); conditions: Harmon et al., 2004; cited from earlier work
[8] = test system: insulin receptor; assay: EGFR inhibitor study: insulin receptor level in MCF-7 cells; format: cell-based, human; conditions: 24-hour treatment in regular growth medium, FIG. 6
Description: (§6) Control MCF-7 cells were serum-starved overnight and treated with the EGFR kinase inhibitor AG1478 (Sigma) or vehicle (DMSO) for 5 minutes prior to the addition of 14 nM EGF or 10 nM insulin (Sigma). After growth factor treatment, cell lysates were prepared and analyzed for ERK and Akt/PKB activation as described above. The 24-hour treatment was done in regular growth medium.

[9] = test system: insulin signaling; assay: EGFR inhibitor study: insulin signaling (ERK and Akt/PKB activation) in control MCF-7 cells; format: cell-based, human; conditions: inhibitor 5 minutes prior to 10 nM insulin, FIG. 5
Description: as §6

[10] = Herstatin-expressing MCF-7 cells vs control MCF-7

For “Herstatin: secreted product of an HER-2 alternative transcript; cell surface receptor isoform (intron fusion protein), polypeptides of SEQ ID NO:2”, the “Herstatin binding to 3T3 parental cells” value [1] was “but not to 3T3 parental cells”, the “decrease in IGF-IR expression” value [2] was roughly 4 fold and the IRS-2 levels [3] was “slight decrease”. For the same compound, the “apparent serine phosphorylation of IRS-2” value [3] was “decrease”, the “apparent serine phosphorylation state of IRS-1” value [3] was “decrease” and the “relative expression of Shc isoforms” value [3] was “alters the relative expression of Shc isoforms”. The “relative expression ratio of ERK1 and ERK2” value [3] was “increases the relative expression ratio of ERK1 and ERK2”, the “accumulation of pro-IR” value [4, 10] was “induce the accumulation of pro-IR” and the “up-regulation of basal IR expression” value [4, 10] was “several-fold”. For the same compound, the “IR activation by insulin” value ([4]; Herstatin-expressing MCF-7 cells, insulin added after overnight serum-free, anti-phosphotyrosine blot of IR IP) was “up-regulated IR activation”, the “Herstatin binding to cells expressing IR” value [5] was “binds at nM concentrations” and the “effect on insulin-stimulated activation of the P13K/Akt pathway” value [6] was “little effect”.
For `COc1cccc(-c2cc(=O)c3ccccc3o2)c1N` [PD-98059], the “inhibition of insulin-stimulated glucose uptake” value [7] is listed as “significant inhibition”.
For `N#CC(=C(/N)Sc1ccccc1N)/C(C#N)=C(/N)Sc1ccccc1N` [U-0216], the “inhibition of insulin-stimulated glucose uptake” value [7] is listed as “significant inhibition”.
With `COc1cc2ncnc(Nc3cccc(Cl)c3)c2cc1OC` [AS1478] the “increase in insulin receptor (IR)” value [8] was “does not Affect Insulin Signaling or Lead to an Increase in IR” and the “effect on insulin signaling” value [9] was “did not affect insulin signaling”.
